The term melting point denotes the temperature of the solid-liquid transition. For orientation: EC50 means the concentration at which the effect is half-maximal.

SMILES strings stand for the structures.

Experimental findings from patent US7241785B2, “Five-membered heterocyclic alkanoic acid derivative” (Takeda Pharmaceutical Company Limited, priority 2001, dated 2007) are described below.

The subject of series [1] is KKA^y mice. In words: Hypoglycemic and hypolipidemic (hypotriglyceridemic) actions in mice. It counts as in vivo. Conditions: Mus musculus, po, 96 h, 0.01% in powdery diet, four days. As to the method:
Hypoglycemic and Hypolipidemic (Hypotriglyceridemic) Actions in Mice
Test compounds were mixed in a powdery diet (CE-2, Japan Clea) at the concentration of 0.01%, and freely given to KKA^y mice (11 to 12 weeks old, 5 mice per group), a model of type 2 diabetes mellitus, for four days. During this period, water was given freely. Blood was sampled from orbital venous plexus, and glucose and triglyceride levels in plasma separated from the blood were determined enzymatically using L type Wako Glu2 (Wako Pure Chemical Industries, Ltd.) or L type Wako TG.H (Wako Pure Chemical Industries, Ltd.), respectively.
In the Table, “hypoglycemic action (%)” represents a percent reduction (%) of the blood glucose level in the treatment group when the blood glucose level in the non-treatment group is taken as 100%. In addition, “hypolipidemic action (%)” represents a percent reduction (%) of the blood triglyceride level in the treatment group when the blood triglyceride level in the non-treatment group is taken as 100%.

In series [2] the test system is KKA^y mice. As to the kind of experiment: Total cholesterol lowering action and plasma anti-arteriosclerosis index-enhancing action in mice. Type of series: in vivo. Conditions: Mus musculus, po, 96 h, 0.01% in powdery diet, four days; for change in vivo at 0.01 % in diet: percent increase of index [(HDL cholesterol/total cholesterol)×100] vs non-treatment group (100%); for inhibition in vivo at 0.01 % in diet: percent reduction of total cholesterol level vs non-treatment group (100%). On the procedure: Total Cholesterol Lowering Action and Plasma Anti-Arteriosclerosis Index-Enhancing Action in Mice
Test compounds were mixed in a powdery diet (CE-2, Japan Clea concentration of 0.01%, and freely given to KKA^y mice (11 to 12 weeks old, 5 mice per group), a model of type 2 diabetes mellitus, for four days. During this period, water was given freely. Blood was sampled from orbital venous plexus, and components in plasma separated from the blood were determined. Total cholesterol levels were determined using L type Wako Cholesterol (Wako Pure Chemical Industries, Ltd.). Precipitation reagent for HDL cholesterol was added to a part of the plasma to precipitate non-HDL lipoprotein, and cholesterol (HDL cholesterol) in the resulting supernatant was determined. The plasma anti-arteriosclerosis index [(HDL cholesterol/total cholesterol)×100] was calculated using these cholesterol levels.
In the Table, “total cholesterol lowering action (%)” represents a percent reduction (%) of the total cholesterol level in the treatment group when the total cholesterol level in the non-treatment group is taken as 100%. In addition, “plasma anti-arteriosclerosis index-enhancing action (%)” represents a percent increase (%) of the plasma anti-arteriosclerosis index in the treatment group when the plasma anti-arteriosclerosis index in the non-treatment group is taken as 100%.

For the next series, the target named is T1, PPARγ-RXRα heterodimer (Homo sapiens, UniProt P37231).
T1 construct: expressed in transfected cells
T1 sequence (P37231 1-477 isoform P37231-2): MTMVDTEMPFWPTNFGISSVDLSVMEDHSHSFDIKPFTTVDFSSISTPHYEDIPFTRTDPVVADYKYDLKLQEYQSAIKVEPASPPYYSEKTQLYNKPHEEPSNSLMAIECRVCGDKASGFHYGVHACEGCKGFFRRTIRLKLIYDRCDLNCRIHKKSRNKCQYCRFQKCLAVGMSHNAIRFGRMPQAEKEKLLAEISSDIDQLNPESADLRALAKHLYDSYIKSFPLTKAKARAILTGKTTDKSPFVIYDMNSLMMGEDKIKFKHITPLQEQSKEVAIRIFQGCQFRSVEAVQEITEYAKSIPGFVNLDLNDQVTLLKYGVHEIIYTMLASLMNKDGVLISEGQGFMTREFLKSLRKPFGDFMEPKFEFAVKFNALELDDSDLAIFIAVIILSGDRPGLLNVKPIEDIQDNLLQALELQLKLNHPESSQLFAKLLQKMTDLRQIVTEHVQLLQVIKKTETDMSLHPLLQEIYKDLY
T1 sequence (P19793 1-462 partner): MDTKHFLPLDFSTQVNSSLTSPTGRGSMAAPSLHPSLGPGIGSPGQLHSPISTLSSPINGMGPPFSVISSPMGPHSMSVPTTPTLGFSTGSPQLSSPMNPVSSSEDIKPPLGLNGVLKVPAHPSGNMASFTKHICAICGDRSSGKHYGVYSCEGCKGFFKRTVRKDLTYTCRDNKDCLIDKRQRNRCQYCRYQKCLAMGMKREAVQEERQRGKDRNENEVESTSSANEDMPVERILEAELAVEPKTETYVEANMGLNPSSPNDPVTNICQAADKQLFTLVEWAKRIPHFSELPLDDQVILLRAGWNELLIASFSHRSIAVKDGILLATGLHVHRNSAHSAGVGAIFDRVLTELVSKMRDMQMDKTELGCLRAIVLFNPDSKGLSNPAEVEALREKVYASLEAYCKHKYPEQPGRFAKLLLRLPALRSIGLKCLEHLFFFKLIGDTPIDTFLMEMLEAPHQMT
In words: PPARγ-RXRα heterodimer ligand activity (luciferase reporter, PPARγ:RXRα:4ERPP/CHO-K1 cells). It counts as cell-based. The note with it: concentration for 50% of maximum fold induction of luciferase, 48 hrs. As to the method:
(PPARγ-RXRα Heterodimer Ligand Activity)
PPARγ:RXRα:4ERPP/CHO-K1 cells obtained in Reference Example 8a were cultured in HAM F12 medium (manufactured by NISSUI SEIYAKU) containing 10% fetal bovine serum [manufactured by Life Technologies, Inc., USA], seeded in a 96-well white plate [manufactured by Corning Coster Corporation, USA] at the density of 2×10^4 cells/well and cultured in a CO2 gas incubator at 37° C. overnight.
After washing the 96-well white plate with PBS (Phosphate-buffered saline), 90 μl of HAM F12 medium containing 0.1% fatty acid-free bovine serum albumin (BSA) and 10 μl of test compound were added, and the cells were cultured in a CO2 gas incubator at 37° C. for 48 hrs. The medium was removed and 40 μl of PicaGene 7.5 (manufactured by Wako Pure Chemical Industries, Ltd.) was added. After stirring, the luciferase activity was determined using Lumistar [manufactured by BMG Labtechnologies GmbH, Germany].
The fold induction was calculated from the luciferase activity of each test compound when the luciferase activity of the non-treatment group is taken as 1. The values of the test compound concentration and the fold induction were analyzed using PRISM 2.01 (produced by GraphPad Software Inc. USA) to calculate the EC50 values, the effective concentration of a test compound for 50% of the maximum fold induction.
Introduction of Human PPARγ- and RXRα-Expression Plasmid and Reporter Plasmid into CHO-K1 Cell and Establishment of Expressed Cell
After a CHO-K1 cell cultured in a tissue culture flask (750 ml) (produced by Corning Costar Corporation, USA) containing HAM F12 medium (produced by NISSUI SEIYAKU) supplemented with 10% fetal bovine serum (produced by Life Technologies, Inc., USA) was scraped by treating with 0.5 g/L trypsin-0.2 g/L EDTA (ethylenediaminetetraacetic acid) (produced by Life Technologies, Inc., USA), the cell was washed with PBS (phosphate-buffered saline) (produced by Life Technologies, Inc., USA), centrifuged (1000 rpm, 5 minutes), and then suspended in PBS. Subsequently, a DNA was introduced into the cell under the conditions shown below using GENE PULSER (produced by Bio-Rad Laboratories, USA).
Namely, to a cuvette having a 0.4 cm gap, added were 8×10^6 cells and 10 μg of plasmid pVgRXR2-hPPARγ obtained in Reference Example 7a and 10 μg of reporter plasmid pGL3-4ERPP-TK neo obtained in Reference Example 4a, which was subjected to electroporation at the voltage of 0.25 kV under the capacitance of 960 μF. Subsequently, the cell was transferred into a HAM F12 medium containing 10% fetal bovine serum and cultured for 24 hours and then the cell was scraped again and centrifuged, and then suspended in HAM F12 medium containing 10% fetal bovine serum supplemented with 500 μg/ml of GENETICIN, (produced by Life Technologies, Inc., USA) and 250 μg /ml of ZEOCIN (produced by Invitrogen, USA). The obtained suspension was diluted to the density of 10^4 cells/ml and inoculated to a 96-well plate (produced by Corning Costar Corporation, USA), which was cultured in a CO2 gas incubator at 37° C., whereby obtaining a GENETICIN- and ZEOCIN-resistant transformant.
Subsequently, after the transformant cell line thus obtained was cultured in a 24-well plate (produced by Corning Costar Corporation, USA), selected was a cell line in which the luciferase was expressed and induced, i.e., PPARγ:RXRα:4ERPP/CHO-K1 cell by the addition of 10 μM pioglitazone hydrochloride.
(A reporter such as luciferase makes a cellular process visible.)

The mark [3] stands for this setting: percent reduction of blood glucose level vs non-treatment group (100%), read-out: Hypoglycemic action (%).
The mark [4] stands for this setting: percent reduction of blood triglyceride level vs non-treatment group (100%), read-out: Hypolipidemic action (%).

For the compound `Cc1oc(-c2ccccc2)nc1COc1ccc(COc2nn(Cc3ccccc3)cc2CC(=O)O)cc1` [Example 44, [1-benzyl-3-[4-(5-methyl-2-phenyl-4-oxazolylmethoxy)benzyloxy]-1H-pyrazol-4-yl]acetic acid], the melting point was in the range of 91 to 92 °C. In the series on KKA^y mice [1] (setting [3]), the inhibition in vivo at 0.01 % in diet was determined as 53%. Further, the inhibition in vivo at 0.01 % in diet with KKA^y mice [1] (setting [4]) amounted to 68%.

`Cc1oc(-c2ccccc2)nc1COc1ccc(COc2nn(-c3ccccc3)cc2CC(=O)O)cc1` [Example 50, [3-[4-(5-methyl-2-phenyl-4-oxazolylmethoxy)benzyloxy]-1-phenyl-1H-pyrazol-4-yl]acetic acid] displayed a melting point of 151 to 152 °C. For the same compound, the inhibition in vivo at 0.01 % in diet in the series with KKA^y mice [1] (setting [3]) was 46%. The inhibition in vivo at 0.01 % in diet in the series with KKA^y mice [1] (setting [4]) is 81%. Also, in the series with KKA^y mice [2], the change in vivo at 0.01 % in diet came out at 12% and the inhibition in vivo at 0.01 % in diet was determined as 8%. Moreover, the EC50 on PPARγ-RXRα heterodimer is 3.9 nM.

As for `Cc1oc(-c2ccccc2)nc1COc1ccc(Cc2nc(CCC(=O)O)c(-c3ccccc3)s2)cc1` [Example 8, 3-[2-[4-(5-methyl-2-phenyl-4-oxazolylmethoxy)benzyl]-5-phenyl-4-thiazolyl]propionic acid], the melting point fell in the range of 119 to 120 °C. Moreover, the inhibition in vivo at 0.01 % in diet in the series on KKA^y mice [1] (setting [3]) came to 43%. Besides, in the series with KKA^y mice [1] (setting [4]), the inhibition in vivo at 0.01 % in diet amounted to 56%. In the series with KKA^y mice [2], the change in vivo at 0.01 % in diet worked out at 11% and the inhibition in vivo at 0.01 % in diet came to 17%. For the same compound, on PPARγ-RXRα heterodimer, a half-maximal effect (EC50) was put at 16 nM.

For the compound `Cc1oc(-c2ccccc2)nc1COc1ccc(Cc2nc(-c3ccccc3)c(CCC(=O)O)[nH]2)cc1` [Example 4, 3-[2-[4-(5-methyl-2-phenyl-4-oxazolylmethoxy)benzyl]-4-phenyl-1H-imidazol-5-yl]propionic acid], the melting point is 193 to 196 °C. This compound displayed an EC50 on PPARγ-RXRα heterodimer of 16 nM.

In turn, `Cc1oc(-c2ccccc2)nc1COc1ccc(CCc2oc(-c3ccccc3)nc2CC(=O)O)cc1` [Example 64, [5-[2-[4-(5-methyl-2-phenyl-4-oxazolyl)methoxyphenyl]ethyl]-2-phenyl-4-oxazolyl]acetic acid] had a melting point of 180 to 181 °C. The compound further had an EC50 on PPARγ-RXRα heterodimer of 6.9 nM.

As to `Cc1oc(-c2ccco2)nc1COc1ccc(COc2nn(C)cc2CC(=O)O)cn1` [Example 38, [3-[6-[2-(2-furyl)-5-methyl-4-oxazolylmethoxy]-3-pyridylmethoxy]-1-methyl-1H-pyrazol-4-yl]acetic acid], the melting point fell in the range of 155 to 156 °C. Moreover, in the series on KKA^y mice [1] (setting [3]), the inhibition in vivo at 0.01 % in diet is 47%. In addition, the inhibition in vivo at 0.01 % in diet in the series on KKA^y mice [1] (setting [4]) was 36%. In addition, in the series with KKA^y mice [2], the change in vivo at 0.01 % in diet is 12% and the inhibition in vivo at 0.01 % in diet amounted to 12%.

As to `Cc1oc(-c2ccccc2)nc1COc1ccc(Cc2nc(-c3ccccc3)c(CCC(=O)O)o2)cc1` [Example 2, 3-[2-[4-(5-methyl-2-phenyl-4-oxazolylmethoxy)benzyl]-4-phenyl-5-oxazolyl]propionic acid], the melting point is 142 to 143 °C. Moreover, in the series with KKA^y mice [1] (setting [3]), the inhibition in vivo at 0.01 % in diet came out at 45%. In addition, the inhibition in vivo at 0.01 % in diet in the series with KKA^y mice [1] (setting [4]) is 52%. For the same compound, the EC50 on PPARγ-RXRα heterodimer stood at 3.7 nM.

Compound `Cc1oc(-c2ccccc2)nc1COc1ccc(COc2nn(Cc3ccccc3)cc2CC(=O)O)cn1` [Example 40, [1-benzyl-3-[6-(5-methyl-2-phenyl-4-oxazolylmethoxy)-3-pyridylmethoxy]-1H-pyrazol-4-yl]acetic acid] returned a melting point of 87 to 88 °C. In addition, the inhibition in vivo at 0.01 % in diet in the series with KKA^y mice [1] (setting [3]) is 52%. Moreover, the inhibition in vivo at 0.01 % in diet in the series with KKA^y mice [1] (setting [4]) was 76%. In the series with KKA^y mice [2], the change in vivo at 0.01 % in diet came to 22% and the inhibition in vivo at 0.01 % in diet stood at 13%.

Regarding `COc1cc(COc2nn(Cc3ccccc3)cc2CC(=O)O)ccc1OCc1nc(-c2ccccc2)oc1C` [Example 46, [1-benzyl-3-[3-methoxy-4-(5-methyl-2-phenyl-4-oxazolylmethoxy)benzyloxy]-1H-pyrazol-4-yl]acetic acid], the melting point was 99 to 100 °C. In the series on KKA^y mice [1] (setting [3]), the inhibition in vivo at 0.01 % in diet came to 54%. Moreover, the inhibition in vivo at 0.01 % in diet in the series with KKA^y mice [1] (setting [4]) came out at 56%.

`Cc1oc(-c2ccccc2)nc1COc1ccc(COc2nn(C)cc2CC(=O)O)cc1` [Example 24, [1-methyl-3-[4-(5-methyl-2-phenyl-4-oxazolylmethoxy)benzyloxy]-1H-pyrazol-4-yl]acetic acid] came in with a melting point of 133 to 134 °C. Besides, the inhibition in vivo at 0.01 % in diet in the series with KKA^y mice [1] (setting [3]) was 50%. Besides, the inhibition in vivo at 0.01 % in diet in the series on KKA^y mice [1] (setting [4]) was 22%.
